Data taken from ChEMBL document CHEMBL5727042, “Heteroaromatic compounds as BTK inhibitors” (2018).

target: T1, Tyrosine-protein kinase Tec (Homo sapiens, UniProt P42680); assay: Lanthscreen Eu Kinase Binding Assay : Lanthscreen Eu Kinase Binding assay […] is performed as described above for BTK except that 1 nM human recombinant full length TEC (His-tagged) kinase and 1 nM Alexa Fluor647-labeled Kinase Tracer #178 were used instead.Representative compounds of the present invention are assessed for inhibition of BTK, BMX, and TXK measuring phosphorylation of a …
T1 sequence (P42680 whole entry): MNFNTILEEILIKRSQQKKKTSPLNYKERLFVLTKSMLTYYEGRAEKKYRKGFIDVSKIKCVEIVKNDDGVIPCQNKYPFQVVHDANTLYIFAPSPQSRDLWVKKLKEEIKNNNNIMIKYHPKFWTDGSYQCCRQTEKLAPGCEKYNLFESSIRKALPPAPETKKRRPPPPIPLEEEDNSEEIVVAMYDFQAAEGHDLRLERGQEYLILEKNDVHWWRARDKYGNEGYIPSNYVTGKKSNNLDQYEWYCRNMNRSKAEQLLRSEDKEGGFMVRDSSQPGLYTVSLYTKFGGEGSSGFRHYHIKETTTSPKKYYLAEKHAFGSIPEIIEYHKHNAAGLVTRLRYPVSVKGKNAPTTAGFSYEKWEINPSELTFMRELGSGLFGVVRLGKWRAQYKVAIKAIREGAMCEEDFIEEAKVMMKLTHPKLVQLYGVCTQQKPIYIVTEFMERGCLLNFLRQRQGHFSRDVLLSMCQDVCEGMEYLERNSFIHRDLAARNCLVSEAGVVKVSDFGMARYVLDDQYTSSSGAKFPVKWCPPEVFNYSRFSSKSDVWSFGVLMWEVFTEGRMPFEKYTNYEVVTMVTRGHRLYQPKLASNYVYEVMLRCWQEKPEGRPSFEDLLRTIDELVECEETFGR

`CC#CC(=O)N1CC[C@]2(C1)C[C@H](n1nc(-c3cnn(Cc4cccc(C(F)(F)F)c4Cl)c3)c(C(N)=O)c1N)C2` and `CC#CC(=O)N1CC[C@]2(C1)C[C@H](n1nc(-c3cnn(Cc4ccc(Cl)c(C(F)(F)F)c4)c3)c(C(N)=O)c1N)C2` are within 1.5-fold of each other in IC50: 0.045 µM for the first, 0.038 µM for the second.

Compared with `CC#CC(=O)N1CC[C@]2(C1)C[C@H](n1nc(-c3cnn(Cc4cc(C(F)(F)F)ccc4OC)c3)c(C(N)=O)c1N)C2`, `CC#CC(=O)N1CC[C@]2(C1)C[C@H](n1nc(-c3cnn(Cc4cc(C(F)(F)F)ccc4Cl)c3)c(C(N)=O)c1N)C2` is 9.2-fold lower in IC50: 1.2 µM for the first, 0.13 µM for the second. The second is the more potent here.
